Read-outs that look alike come from different tables or passages of the source.
How the values were obtained:
Type in all cases: in vivo, human
[1] = Once daily intravenous 10 mg/kg P5P for four days, urinary excretion and renal clearance (Example Four); settings: 10 mg/kg iv once daily, 4 days, P5P uncorrected, mean; for CL renal: human, urine and plasma, iv, 10 mg/kg, read-out: CLR, renal clearance (converted)
Procedure: Data sets analyzed—Six (6) healthy, adult non-smokers were administered intravenously a single daily dose of 10 mg/kb of P5P for four consecutive days and completed the study. In accordance with the study protocol, data from all subjects who completed the study were used for pharmacokinetic and statistical analysis.
Analytical Methods—Plasma and urine samples were used for analysis. P5P, PAL, and PA levels were determined by HPLC/FLD. The quantitation level was 5 ng/mL for plasma and 100 ng/mL for urine. The sample analysis calibration curve range was 5 ng/mL to 5000 ng/mL for plasma and 100 ng/mL to 50,000 ng/mL for urine.
Total and Renal Clearance—Total body clearance was estimated for P5P and was calculated as Dose/AUC0-inf.

[2] = Cumulative urinary excretion after single intravenous dose of P5P (Example Three); settings: for Cumulative Urinary Excretion as Percent of the Dose: Percent (CV %)
Procedure: P5P, pyridoxal, and 4-pyridoxic acid were evaluated in both plasma and urine over a 24 hour interval following either intravenous or oral dosing. The results are set out below in Tables 2 and 3. The urinary excretion of the unchanged P5P is negligible. Less than 0.5% of the administered dose was found as P5P in the urine (Table 10). Similarly, very little of the dose was excreted in urine as PAL, between approximately 2 to 3% of the total dose (Table 10). PA represented the largest amounts found in urine. Over a 24-hour interval, between 30% and 52% of the given dose was excreted in urine as 4-pyridoxic acid.

[3] = Single intravenous dose escalation of P5P, plasma pharmacokinetics (Examples Two and Three); settings: for Cmax / MRT / Tmax / Vd / clearance / AUC / half-life / AUC(0-t): both sexes, human, plasma; for Cmax / MRT / Tmax / Vd / clearance / AUC / half-life: iv; for AUC(0-t): read-out: AUC-T
Procedure: A phase one clinical trial was conducted to compare the pharmacokinetics of intravenously administered P5P and orally administered P5P. The trial was a single dose escalation study.
For intravenous administration, P5P was administered by bolus injection under fasting conditions. The following doses of P5P were studied: 1, 5, 10, and 20 mg/kg. 6 subjects were assigned to each dosage group.
P5P, pyridoxal, and 4-pyridoxic acid were evaluated in both plasma and urine over a 24 hour interval following either intravenous or oral dosing. The results are set out below in Tables 2 and 3.
Methodology—This was a single-blind, single-dose escalation, non-randomized, 4-phase, non-crossover study designed to evaluate the safety and […] subjects under fasting conditions and to estimate pharmacokinetic parameters of P5P.
Subjects were assigned to one of the four groups (six subjects per group) under fasting conditions.
Concentrations of pyridoxal-5′-phosphate (P5P) were measured from the plasma samples collected over a 24-bour interval after dosing in each phase.
Pharmacokinetic parameters: AUCt, AUCinf, Cmax, Tmax, Kel, Thalf, Vd, CL, MRT and F were estimated based on pyridoxal-5′-phosphate (P5P) plasma levels for each subject that was in the final data set.
The test product used was a P5P Intravenous Injectable Solution, 50 mg/ml, which was prepared in accordance with the methods of Example 1 (CanAm BioResearch Inc. Canada); Lot No.: LP1459: Manufacturing Date: 12/03. A single 1, 5, 10 or 20 mg/kg dose was given by intravenous injection. The duration of treatment was a single dose.
Secondary Endpoint—Pharmacokinetic (PK) Parameters—Plasma concentrations of pyridoxal-5′-phosphate (P5P) were measured by a validated analytical method. Based on these concentration levels, AUCt, AUCinf, Cmax, Tmax, Kel, Thalf, Vd, CL, MRT and F were estimated.
Statistical Methods—Descriptive statistics were calculated by treatments for the estimated pharmacokinetic parameters.

[4] = 1 mg/kg, Group 1, P5P 1 mg/kg single iv, plasma P5P, mean
[5] = 1 mg/kg, P5P 1 mg/kg single iv bolus, fasting
[6] = 5 mg/kg, Group 2, P5P 5 mg/kg single iv, plasma P5P, mean
[7] = 5 mg/kg, P5P 5 mg/kg single iv bolus, fasting
[8] = 10 mg/kg, Group 3, P5P 10 mg/kg single iv, plasma P5P, mean
[9] = 10 mg/kg, Group 4, dose 10 mg/kg, single iv, plasma P5P, mean
[10] = 10 mg/kg, P5P 10 mg/kg single iv bolus, fasting
[11] = 20 mg/kg, P5P 20 mg/kg single iv bolus, fasting
[12] = ln(pK Parameter) = b0 + b1 * ln (Dose)
[13] = ln(pK Parameter) = b0 + b1 * ln (Dose), single iv 1-20 mg/kg

Ae0-t, total amount excreted in urine ([1]; Day 1): 848625 ng
Ae0-t, total amount excreted in urine ([1]; Day 4): 558650 ng
CL renal ([1]; Day 1): 0.0465 mL/min
CL renal ([1]; Day 4): 0.029 mL/min
Cumulative Urinary Excretion as Percent of the Dose ([2]; Group 1, dose of P5P 1 mg/1 kg, single iv): 0.06 (161) Percent
Cumulative Urinary Excretion as Percent of the Dose ([2]; Group 2, P5P 5 mg/kg single iv): 0.08 (96) Percent
Cumulative Urinary Excretion as Percent of the Dose ([2]; Group 3, P5P 10 mg/kg single iv): 0.02 (167) Percent
Cumulative Urinary Excretion as Percent of the Dose ([2]; Group 4, dose of P5P, single iv): 0.26 (73) Percent
part of the administered dose found in urine ([2]; single iv P5P 1-20 mg/kg, 24-hour interval): Less than 0.5%
Kel ([3]; Group 1, P5P 1 mg/kg single iv, plasma P5P, mean): 0.14 h⁻¹
Kel ([3]; Group 2, P5P 5 mg/kg single iv, plasma P5P, mean): 0.118 h⁻¹
Kel ([3]; Group 3, P5P 10 mg/kg single iv, plasma P5P, mean): 0.12 h⁻¹
Kel ([3]; Group 4, dose 10 mg/kg, single iv, plasma P5P, mean): 0.14 h⁻¹
Cmax [3, 4]: 20 µg/mL
MRT [3, 4]: 3.73 h
Tmax [3, 4]: 8.4 min
Vd [3, 4]: 13 L
clearance [3, 4]: 29.3 mL/min
AUC ([3]; 1 mg/kg, Group 1, P5P 1 mg/kg single iv, plasma P5P, mean, read-out: AUC (O-t)): 38.4 µg·h/mL
AUC ([3]; 1 mg/kg, Group 1, P5P 1 mg/kg single iv, plasma P5P, mean, read-out: AUC (o-inf)): 39.1 µg·h/mL
half-life ([3]; 1 mg/kg, Group 1, P5P 1 mg/kg single iv, plasma P5P, mean, read-out: T½ (converted)): 5.11 h
Cmax [3, 5]: 20 ± 2.95 µg/mL
Tmax [3, 5]: 8.4 ± 4.2 min
half-life ([3]; 1 mg/kg, P5P 1 mg/kg single iv bolus, fasting, read-out: T½ (converted)): 5.11 ± 0.98 h
Cmax [3, 6]: 98.8 µg/mL
MRT [3, 6]: 3.52 h
Tmax [3, 6]: 8.4 min
Vd [3, 6]: 16.3 L
clearance [3, 6]: 32.1 mL/min
AUC ([3]; 5 mg/kg, Group 2, P5P 5 mg/kg single iv, plasma P5P, mean, read-out: AUC (O-t)): 173 µg·h/mL
AUC ([3]; 5 mg/kg, Group 2, P5P 5 mg/kg single iv, plasma P5P, mean, read-out: AUC (o-inf)): 176 µg·h/mL
half-life ([3]; 5 mg/kg, Group 2, P5P 5 mg/kg single iv, plasma P5P, mean, read-out: T½ (converted)): 5.89 h
Cmax [3, 7]: 98.8 ± 16 µg/mL
Tmax [3, 7]: 8.4 ± 4.2 min
half-life ([3]; 5 mg/kg, P5P 5 mg/kg single iv bolus, fasting, read-out: T½ (converted)): 5.89 ± 0.39 h
Cmax [3, 8]: 220 µg/mL
MRT [3, 8]: 3.11 h
Tmax [3, 8]: 6 min
Vd [3, 8]: 18 L
clearance [3, 8]: 35.2 mL/min
AUC ([3]; 10 mg/kg, Group 3, P5P 10 mg/kg single iv, plasma P5P, mean, read-out: AUC (o-inf)): 312 µg·h/mL
half-life ([3]; 10 mg/kg, Group 3, P5P 10 mg/kg single iv, plasma P5P, mean, read-out: T½ (converted)): 5.81 h
Cmax [3, 9]: 424 µg/mL
MRT [3, 9]: 3.32 h
Tmax [3, 9]: 9 min
Vd [3, 9]: 17.5 L
clearance [3, 9]: 39.8 mL/min
AUC ([3]; 10 mg/kg, Group 4, dose 10 mg/kg, single iv, plasma P5P, mean, read-out: AUC (O-t)): 577 µg·h/mL
AUC ([3]; 10 mg/kg, Group 4, dose 10 mg/kg, single iv, plasma P5P, mean, read-out: AUC (o-inf)): 585 µg·h/mL
half-life ([3]; 10 mg/kg, Group 4, dose 10 mg/kg, single iv, plasma P5P, mean, read-out: T½ (converted)): 5.03 h
Cmax [3, 10]: 220 ± 9.52 µg/mL
Tmax [3, 10]: 6 ± 1.8 min
half-life ([3]; 10 mg/kg, P5P 10 mg/kg single iv bolus, fasting, read-out: T½ (converted)): 5.87 ± 0.89 h
Cmax [3, 11]: 424 ± 96.9 µg/mL
Tmax [3, 11]: 9 ± 4.2 min
half-life ([3]; 20 mg/kg, P5P 20 mg/kg single iv bolus, fasting, read-out: T½ (converted)): 5.03 ± 0.72 h
half-life ([3]; over all single iv doses of P5P (1-20 mg/kg), read-out: apparent elimination half-life (converted)): 5 to 6 h
AUC(0-t) ([3]; P5P 1 mg/kg single iv bolus, fasting): 38.4 ± 4.61 µg·h/mL
AUC(0-t) ([3]; P5P 5 mg/kg single iv bolus, fasting): 173 ± 31.9 µg·h/mL
AUC(0-t) ([3]; P5P 10 mg/kg single iv bolus, fasting): 308 ± 45.5 µg·h/mL
AUC(0-t) ([3]; P5P 20 mg/kg single iv bolus, fasting): 577 ± 62.5 µg·h/mL
Significance of b1, lnAUCi [3, 12]: <0.0001
Significance of b1, lnCl [3, 12]: 0.0128
Significance of b1, lnCmax [3, 12]: <0.0001
Significance of b1, lnMRT [3, 12]: 0.1568
Significance of b1, lnThalf [3, 12]: 0.6177
Coef. for Dose (b1), lnAUCi [3, 13]: 0.90
Coef. for Dose (b1), lnCl [3, 13]: 0.10
Coef. for Dose (b1), lnCmax [3, 13]: 1.03
Coef. for Dose (b1), lnMRT [3, 13]: −0.05
Coef. for Dose (b1), lnThalf [3, 13]: 0.02
Intercept (b0), lnAUCi [3, 13]: 3.67
Intercept (b0), lnCl [3, 13]: 7.44
Intercept (b0), lnCmax [3, 13]: 2.98
Intercept (b0), lnMRT [3, 13]: 1.29
Intercept (b0), lnThalf [3, 13]: 1.67
SMILES: Cc1ncc(COP(=O)(O)O)c(C=O)c1O [P5P, Pyridoxal 5′-phosphate, reference compound]
bioavailability, intravenous versus oral ([3]; single iv bolus vs single oral tablets): greater when intravenously administered rather than orally administered
